Structures can show the parent of a compound that is named as a salt.
Tests used:
[1] = tested on: SK-MEL-28 tumor cells; experiment: Cell growth inhibition assay (CellTiter-Glo), SK-MEL-28; format: cell-based, Human; settings: 3 days incubation
Outline: (§1)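 Cells plated at 500 cells/well in their growth media, dosed next day with nine-step 1:3 compound dilutions (final DMSO 0.2%), then incubated 3 days at 37° C, 5% CO2. Total ATP read by CellTiter-Glo luminescence as a surrogate for cell number; IC50 interpolated from 4-parameter fit versus DMSO controls.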

[2] = tested on: HN5 tumor cells; experiment: Cell growth inhibition assay (CellTiter-Glo), HN5; format: cell-based, Human; settings: Homo sapiens, 72 h; 3 days incubation
Outline: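 Readout was CellTiter-Glo luminescence (total ATP, surrogate for cell number) after 3-day exposure at 37° C, 5% CO2 to 1:3 serial compound dilutions in 0.2% final DMSO. Seeding was 500 cells/well; IC50 derived by 4-parameter fit relative to vehicle-treated wells.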

[3] = target: T1, EGFR (Homo sapiens, UniProt P00533); experiment: EGFR substrate phosphorylation assay (HTRF); format: biochemical
T1 construct: made in house; host or cells: baculovirus expression system
T1 sequence (P00533 25-1210): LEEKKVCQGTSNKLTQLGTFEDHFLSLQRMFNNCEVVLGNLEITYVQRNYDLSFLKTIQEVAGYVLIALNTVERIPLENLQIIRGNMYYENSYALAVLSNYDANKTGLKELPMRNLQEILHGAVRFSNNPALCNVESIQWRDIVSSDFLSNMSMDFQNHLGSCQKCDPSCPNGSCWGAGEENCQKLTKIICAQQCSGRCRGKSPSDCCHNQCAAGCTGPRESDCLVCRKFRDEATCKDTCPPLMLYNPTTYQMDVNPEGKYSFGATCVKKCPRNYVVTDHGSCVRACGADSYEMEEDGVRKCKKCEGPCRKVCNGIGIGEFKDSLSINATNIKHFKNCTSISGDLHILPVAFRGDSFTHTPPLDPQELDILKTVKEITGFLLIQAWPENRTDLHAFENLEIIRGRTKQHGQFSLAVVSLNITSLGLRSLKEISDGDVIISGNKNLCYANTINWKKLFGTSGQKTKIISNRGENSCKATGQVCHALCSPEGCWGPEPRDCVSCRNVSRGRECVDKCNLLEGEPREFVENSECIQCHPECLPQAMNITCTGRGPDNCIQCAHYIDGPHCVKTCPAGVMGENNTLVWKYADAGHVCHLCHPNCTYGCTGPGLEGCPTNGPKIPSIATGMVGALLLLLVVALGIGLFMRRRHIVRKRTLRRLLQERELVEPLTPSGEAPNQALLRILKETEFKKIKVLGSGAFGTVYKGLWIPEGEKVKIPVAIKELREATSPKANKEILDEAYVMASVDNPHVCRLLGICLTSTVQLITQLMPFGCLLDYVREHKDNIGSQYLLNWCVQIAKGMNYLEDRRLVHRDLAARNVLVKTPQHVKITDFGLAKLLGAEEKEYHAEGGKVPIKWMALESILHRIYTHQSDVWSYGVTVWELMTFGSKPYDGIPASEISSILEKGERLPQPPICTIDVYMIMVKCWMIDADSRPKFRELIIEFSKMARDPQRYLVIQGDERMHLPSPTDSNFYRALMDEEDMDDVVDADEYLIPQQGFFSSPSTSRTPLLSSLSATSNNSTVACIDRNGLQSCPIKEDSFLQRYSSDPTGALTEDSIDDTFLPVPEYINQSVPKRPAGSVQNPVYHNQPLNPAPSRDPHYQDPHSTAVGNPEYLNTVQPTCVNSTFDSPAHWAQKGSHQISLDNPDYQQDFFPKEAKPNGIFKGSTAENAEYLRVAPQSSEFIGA
Outline: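 Baculovirus-expressed EGFR (0.8 nM) or ErbB2 (10 nM) in enzyme mix, preincubated 1 h at 20 °C with compound (0.00027–47.6 μM final), then 90 min at 20 °C with substrate mix of 20 μM ATP, 0.8 uM biotinylated Peptide C, MnCl2, MOPS pH 7.5. Phosphotyrosine by HTRF; pIC50 reported.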

[4] = tested on: Colo205 tumor cells; experiment: Cell growth inhibition assay (CellTiter-Glo), Colo205; format: cell-based, Human; settings: 3 days incubation
Outline: as §1

Row | IC50 ([1]; Homo sapiens, SK-MEL-28, 72 h) [nM] | IC50 [2] [nM] | IC50 [3] [nM] | IC50 ([4]; Homo sapiens, COLO 205, 72 h) [nM] | IC50 [1] [nM] | IC50 [4] [nM] | Structure (SMILES) | EGFR Activity [3]
1 | 100 to 1000 | > 1000 | 100 to 1000 | 100 to 1000 | – | – | CC(C)c1nc(-c2ccc(F)c(NS(=O)(=O)c3c(F)cccc3F)c2)c(-c2ccnc(Nc3cccc(CCS(N)(=O)=O)c3)n2)s1 [Example 113] | –
2 | < 100 | 100 to 1000 | > 1000 | < 100 | – | – | CC(C)c1nc(-c2cccc(NS(=O)(=O)c3cccs3)c2)c(-c2ccnc(Nc3ccc(N4CCOCC4)nc3)n2)s1 [Example 51] | –
3 | 100 to 1000 | > 1000 | > 1000 | 100 to 1000 | – | – | CC(=O)N1CCN(c2ccc(Nc3nccc(-c4sc(C(C)C)nc4-c4cccc(NS(=O)(=O)c5cccc(C(F)(F)F)c5)c4)n3)cn2)CC1 [Example 70] | –
4 | < 100 | 100 to 1000 | < 100 | < 100 | – | – | O=S(=O)(Nc1cccc(-c2nc(N3CCCC3)sc2-c2ccnc(Nc3ccc(N4CCN(CCF)CC4)c(F)c3)n2)c1)c1c(F)cccc1F [Example 21, 2,6-Difluoro-N-{3-[5-[2-({3-fluoro-4-[4-(2-fluoroethyl)-1-piperazinyl]phenyl}amino)-4-pyrimidinyl]-2-(1-pyrrolidinyl)-1,3-thiazol-4-yl]phenyl}benzenesulfonamide] | –
5 | < 100 | 100 to 1000 | > 1000 | < 100 | – | – | CS(=O)(=O)c1cccc(Nc2nccc(-c3sc(N4CCOCC4)nc3-c3cccc(NS(=O)(=O)c4c(F)cccc4F)c3F)n2)c1 [Example 130] | –
6 | 100 to 1000 | > 1000 | 100 to 1000 | 100 to 1000 | – | – | O=S(=O)(Nc1cc(-c2nc(N3CCOCC3)sc2-c2ccnc(Nc3ccc4c(c3)OCCO4)n2)ccc1F)c1c(F)cccc1F [Example 127] | –
7 | < 100 | > 1000 | 100 to 1000 | < 100 | – | – | CC(C)c1nc(-c2ccc(F)c(NS(=O)(=O)c3ccccc3F)c2)c(-c2ccnc(Nc3ccc(N4CCN(CCS(C)(=O)=O)CC4)c(F)c3)n2)s1 [Example 22, 2-Fluoro-N-{2-fluoro-5-[5-{2-[(3-fluoro-4-}4-[2-(methylsulfonyl)ethyl]-1-piperazinyl}phenyl)amino]-4-pyrimidinyl}-2-(1-methylethyl)-1,3-thiazol-4-yl]phenyl}benzenesulfonamide hydrochloride] | –
8 | < 100 | 100 to 1000 | 100 to 1000 | 100 to 1000 | – | – | CCNc1nc(-c2ccc(F)c(NS(=O)(=O)c3c(F)cccc3F)c2)c(-c2ccnc(Nc3ccc(N4CCOCC4)nc3)n2)s1 [Example 166] | –
9 | – | 100 to 1000 | – | – | 100 to 1000 | 100 to 1000 | CCNc1nc(-c2cccc(NS(=O)(=O)c3ccccc3)c2)c(-c2ccnc(Nc3ccc(OCCN4CCCC4)c(F)c3)n2)s1 [Example 65] | +++ (at least one pIC50 measurement of greater than 7 against EGFR)
10 | 100 to 1000 | 100 to 1000 | 100 to 1000 | 100 to 1000 | – | – | CN1CCC(c2nc(-c3ccc(F)c(NS(=O)(=O)c4c(F)cccc4F)c3)c(-c3ccnc(Nc4ccc(N5CCOCC5)nc4)n3)s2)CC1 [Example 106] | –
11 | < 100 | > 1000 | 100 to 1000 | < 100 | – | – | CC(C)c1nc(-c2ccc(F)c(NS(=O)(=O)c3c(F)cccc3F)c2)c(-c2ccnc(Nc3ccc(N4CCN5CCOC[C@H]5C4)nc3)n2)s1 [Example 97] | –
12 | 100 to 1000 | > 1000 | 100 to 1000 | 100 to 1000 | – | – | CC(C)c1nc(-c2ccc(F)c(NS(=O)(=O)c3ccccc3C#N)c2)c(-c2ccnc(Nc3ccc(N4CCOCC4)nc3)n2)s1 [Example 107] | –
13 | < 100 | 100 to 1000 | 100 to 1000 | < 100 | – | – | CC(C)c1nc(-c2cccc(NS(=O)(=O)c3c(F)cccc3F)c2)c(-c2ccnc(Nc3ccc(N4CCN(CCS(C)(=O)=O)CC4)c(F)c3)n2)s1 [Example 16, 2,6-Difluoro-N-{3-[5-{2-[(3-fluoro-4-{4-[2-(methylsulfonyl)ethyl]-1-piperazinyl}phenyl)amino]-4-pyrimidinyl}-2-(1-methylethyl)-1,3-thiazol-4-yl]ohenyl}benzenesulfonamide hydrochloride] | –
14 | < 100 | 100 to 1000 | > 1000 | < 100 | – | – | Cc1nc(-c2cccc(NS(=O)(=O)c3c(F)cccc3F)c2)c(-c2ccnc(Nc3ccc(N4CCOCC4)nc3)n2)s1 [Example 133] | –
15 | < 100 | 100 to 1000 | 100 to 1000 | < 100 | – | – | O=S(=O)(Nc1cccc(-c2ncsc2-c2ccnc(Nc3ccc(N4CCOCC4)nc3)n2)c1)c1c(F)cccc1F [Example 162] | –
16 | 100 to 1000 | > 1000 | > 1000 | 100 to 1000 | – | – | CS(=O)(=O)CCN1CCN(c2ccc(Nc3nccc(-c4oc(N5CCCC5)nc4-c4ccc(F)c(NS(=O)(=O)c5c(F)cccc5F)c4)n3)cc2F)CC1 [Example 119] | –
17 | < 100 | > 1000 | > 1000 | < 100 | – | – | CC(=O)N1CCN(c2ccc(Nc3nccc(-c4oc(C(C)C)nc4-c4cccc(NS(=O)(=O)c5c(F)cccc5F)c4)n3)cn2)CC1 [Example 56] | –
18 | 100 to 1000 | > 1000 | > 1000 | 100 to 1000 | – | – | Cc1cc(N2CCOCC2)ncc1Nc1nccc(-c2sc(N3CCCC3)nc2-c2cccc(NS(=O)(=O)c3c(F)cccc3F)c2)n1 [Example 124] | –
19 | < 100 | < 100 | > 1000 | < 100 | – | – | Cc1cc(Nc2nccc(-c3sc(C(C)(C)C)nc3-c3cccc(NS(=O)(=O)c4c(F)cccc4F)c3F)n2)ccn1 [Example 159] | –
20 | < 100 | > 1000 | 100 to 1000 | < 100 | – | – | CC(=O)N1CCN(c2ccc(Nc3nccc(-c4sc(C(C)C)nc4-c4cccc(NS(=O)(=O)c5cccc(F)c5)c4)n3)cn2)CC1 [Example 11, N-{3-[5-(2-{[6-(4-Acetyl-1-piperazinyl)-3-pyridinyl]amino}-4-pyrimidinyl)-2-(1-methylethyl)-1,3-thiazol-4-yl]phenyl}-3-fluorobenzenesulfonamide] | –
21 | < 100 | 100 to 1000 | 100 to 1000 | < 100 | – | – | CC(C)c1nc(-c2ccc(F)c(NS(=O)(=O)c3c(F)cccc3F)c2)c(-c2ccnc(Nc3ccnc(N4CCOCC4)c3)n2)s1 [Example 117] | –
22 | 100 to 1000 | > 1000 | > 1000 | 100 to 1000 | – | – | CC(C)c1nc(-c2cc(F)c(F)c(NS(=O)(=O)c3cccc(F)c3)c2)c(-c2ccnc(Nc3cnc(N4CCOCC4)c(F)c3)n2)s1 [Example 31, N-{2,3-Difluoro-5-[5-(2-{[5-fluoro-6-(4-morpholinyl)-3-pyridinyl]amino}-4-pyrimidinyl)-2-(1-methylethyl)-1,3-thiazol-4-yl]phenyl}-3-fluorobenzenesulfonamide] | –
23 | < 100 | > 1000 | > 1000 | < 100 | – | – | CC(C)c1nc(-c2ccnc(NS(=O)(=O)c3c(F)cccc3F)c2)c(-c2ccnc(Nc3cnc(N4CCOCC4)c(F)c3)n2)s1 [Example 33] | –
24 | 100 to 1000 | > 1000 | > 1000 | < 100 | – | – | COc1cc(N2CCN(CCS(C)(=O)=O)CC2)c(C)cc1Nc1nccc(-c2sc(C(C)(C)C)nc2-c2cccc(NS(=O)(=O)c3c(F)cccc3F)c2)n1 [Example 120] | –

Source: patent publication US20110319392A1, “Thiazole Sulfonamide And Oxazole Sulfonamide Kinase Inhibitors” (priority 2009, published 2011)
